Assay results from patent US20040096356A1, “Assay device for determining analytes in a liquid dairy product” (priority 1997, published 2004).

Legend:
Format in all cases: binding
receptor BlaR-CTD [1] = target: T1, receptor BlaR-CTD (Bacillus licheniformis, UniProt P12287); test: Five minutes test: strip test for β-lactam antibiotics in milk using BlaR-CTD; conditions: for lowest concentration detected in a milk sample: in 5 minutes, positive when first band is less intense than second band; for Intensity 1st band: scale 0 to 10, reference band 6, 47° C., 3 min incubation + 2 min migration
T1 construct: the receptor BlaR-CTD is the carboxy-terminal region of BlaR
Description: (§1) According to a preferred embodiment of the invention an identifier is used which comprises a receptor sensitive to antibiotics having a β-lactam ring, which receptor is obtained from Bacillus licheniformis, such as the receptor BlaR or the receptor BlaR-CTD. The isolation and the peptide sequence of the protein BlaR are described in Y. Zhu et al., J. Bacteriol., 1137-1141 (1990); the receptor BlaR-CTD is the carboxy-terminal region of BlaR, whose isolation and peptide sequence are described in B. Joris et al., FEMS Microbiology Letters, 107-114 (1990).
(§2) This example illustrates the detection in milk of antibiotics having a β-lactam ring which are monitored by the health authorities. The test described in this example uses the receptor BlaR-CTD coupled with gold beads, which serve as labelling agents, and uses a support which is in the form of an assay device comprising a solid support on which membranes are fixed.
(§3) 3.79 ml of a solution of recognition agent BlaR-CTD having a concentration of 6.6 mg/ml are taken up in a sodium phosphate buffer, 20 mM pH 7. To this solution of BlaR-CTD are then added 41.71 ml of bicarbonate buffer (0.1 M sodium bicarbonate, pH 9) and 2 ml of a solution of N-hydroxysuccinimide 6-(biotinamido)caproic ester containing 2.23 mg/ml likewise of bicarbonate buffer. This solution is stirred gently on a LABINCO stirrer for tubes on a rotary axis (available from VEL, Belgium) at a rate of 2 revolutions/minute for 2 hours at ambient temperature and away from light. 2.5 ml of a solution of Tris buffer, 1 M pH 8 are incubated with the reaction mixture under the same conditions for 30 minutes. The solution thus obtained is dialysed against HNM buffer (Hepes 100 mM, pH 8, NaCl 100 mM, MgCl2 50 mM) for 24 hours. In this way a biotinylated BlaR-CTD solution is obtained which is diluted in HNM-BSA buffer (Hepes 500 mM, pH 8, NaCl 500 mM, MgCl2 250 mM, BSA 10 mg/ml) to a concentration of 250 μg of biotinylated BlaR-CTD per ml of buffer. This solution is stored at −20° C.
(§4) The biotinylated BlaR-CTD solution prepared in Example 3.1.1 is diluted 114.7 times with the HNM-BSA buffer (Hepes 500 mM, pH 8, NaCl 500 mM, MgCl2 250 mM, BSA 10 mg/ml). At room temperature, 22.5 parts by volume of this dilute biotinylated BlaR-CTD solution, 7.5 parts by volume of HNM-BSA buffer, 9.27 parts by volume of the gold particle suspension used to label the biotinylated BlaR-CTD and 6 parts by volume of reference gold particle suspension are mixed (see Example 3.1.4 below).
(§5) The first capture substance makes it possible to fix the BlaR-CTD coupled with the gold beads present in excess relative to the quantity of antibiotic present in the sample.
(§6) Assay devices containing membranes (2), (3) and (4) are used, assembled in accordance with the procedure described in Example 1.1. The membrane (3) of these devices carries on the proximal side the capture substance described in Example 32.1. and on the distal side the capture substance described in Example 3.2.2. The capture substances were deposited in accordance with the procedure described in Example 1.2.
Six samples of fresh milk are prepared, containing 0; 2; 4; 6; 8 and 10 ppb, repsectively, of cloxacillin. Each of these solutions is then analysed as follows.
(§7) An aliquot is taken of 200 μl of milk sample and 45.27 μl of solution prepared in Example 3.1.3, and is placed in a glass flask. This mixture is incubated at 47° C. for 3 minutes. An assay device is taken and is placed vertically in the glass flask such that the first end of the assay device is in contact with the mixture in such a way that the second end rests on the wall of the glass flask. The mixture is allowed to migrate over the assay device while the assembly is incubated at 47° C. for 2 minutes.
(§8) An intensity value ranging from 0 to 10 is awarded to the bands detected, the value 10 being given to the most intense band and the value 0 being given to the least intense band. On this scale, a value of 6 is awarded to the reference band. […]

receptor BlaR-CTD [2] = target: T1, receptor BlaR-CTD; test: 9-minute test: strip test for β-lactam antibiotics in milk using BlaR-CTD; conditions: for lowest concentration detected in a milk sample: in 9 minutes, positive when first band is less intense than second band; for Intensity 1st band: scale 0 to 10, reference band 6, 47° C., 7 min incubation + 2 min migration
Description: as §1, §2, §3, §4, §5, §6
Six samples of fresh milk are prepared, containing 0; 4; 6; 8; 10 and 12 ppb, respectively, of cephapirin. Each of these solutions is then analysed as follows.
as §7, with “for 7” for “for 3”
as §8

receptor BlaR-CTD [3] = target: T1, receptor BlaR-CTD; test: 20-minute test: strip test for β-lactam antibiotics in milk using BlaR-CTD; conditions: for Intensity 1st band: scale 0 to 10, reference band 6, 47° C., 18 min incubation + 2 min migration
Description: as §1, §2, §3, §4, §5, §6
Six samples of fresh milk are prepared, containing 0; 20; 30; 40; 50 and 60 ppb, respectively, of ceftiofur. Each of these solutions is then analysed as follows.
as §7, with “for 18” for “for 3”
An intensity value ranging from 0 to 10 is awarded to the bands detected, the value 10 being given to the most intense band and the value 0 being given to the least intense band. On this scale, a value 6 is awarded to the reference band. […]

receptor BlaR-CTD [4] = target: T1, receptor BlaR-CTD; test: 3-minute rapid test: strip test for β-lactam antibiotics in milk using BlaR-CTD; conditions: in 3 minutes; positive when first band is less intense than second band
Description: as §1, §2, §3, §4, §5, §6
7 samples of fresh milk are prepared, containing 0; 1; 2; 3; 4; 5 and 6 ppb, respectively, of penicillin G. Each of these solutions is then analysed as follows.
as §7, with “for 1 minute.” for “for 3 minutes.”, “mixture and” for “mixture in”, “such” for “such a way”
as §8

T1 sequence (P12287 340-601): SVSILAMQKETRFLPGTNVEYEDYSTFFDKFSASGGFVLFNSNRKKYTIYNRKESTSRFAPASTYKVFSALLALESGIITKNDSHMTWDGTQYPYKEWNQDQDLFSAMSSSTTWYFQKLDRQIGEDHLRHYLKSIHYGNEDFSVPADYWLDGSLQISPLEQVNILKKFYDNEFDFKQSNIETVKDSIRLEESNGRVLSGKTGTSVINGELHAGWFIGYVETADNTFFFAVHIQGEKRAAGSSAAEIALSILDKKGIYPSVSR

| Structure (SMILES) | lowest concentration detected in a milk sample (receptor BlaR-CTD [1]) | lowest concentration detected in a milk sample (receptor BlaR-CTD [2]) | lowest concentration detected in a milk sample (receptor BlaR-CTD [4]) | also measured |
| --- | --- | --- | --- | --- |
| CO/N=C(\C(=O)N[C@@H]1C(=O)N2C(C(=O)O)=C(CSC(=O)c3ccco3)CS[C@H]12)c1csc(N)n1 [Ceftiofur, ceftiofur] | 100 ppb | 80 ppb |  | Intensity 1st band (receptor BlaR-CTD [3]; 20 ppb ceftiofur in fresh milk): 6; Intensity 1st band (receptor BlaR-CTD [3]; 30 ppb ceftiofur in fresh milk): 5; Intensity 1st band (receptor BlaR-CTD [3]; 40 ppb ceftiofur in fresh milk): 4; Intensity 1st band (receptor BlaR-CTD [3]; 50 ppb ceftiofur in fresh milk): 3; Intensity 1st band (receptor BlaR-CTD [3]; 60 ppb ceftiofur in fresh milk): 3; lowest concentration detected in a milk sample (receptor BlaR-CTD [3]; in 20 minutes, positive when first band is less intense than second band): 30 ppb |
| CC(=O)OCC1=C(C(=O)O)N2C(=O)[C@@H](NC(=O)CSc3ccncc3)[C@H]2SC1 [Cephapirin, cephapirin] | 16 ppb | 6 ppb | 20 ppb | Intensity 1st band (receptor BlaR-CTD [2]; 4 ppb cephapirin in fresh milk): 6; Intensity 1st band (receptor BlaR-CTD [2]; 6 ppb cephapirin in fresh milk): 5; Intensity 1st band (receptor BlaR-CTD [2]; 8 ppb cephapirin in fresh milk): 4; Intensity 1st band (receptor BlaR-CTD [2]; 10 ppb cephapirin in fresh milk): 3; Intensity 1st band (receptor BlaR-CTD [2]; 12 ppb cephapirin in fresh milk): 3 |
| Cc1onc(-c2ccccc2Cl)c1C(=O)N[C@@H]1C(=O)N2[C@@H]1SC(C)(C)[C@@H]2C(=O)O [Cloxacillin, cloxacillin] | 4 ppb | 4 ppb | less than 10 ppb | Intensity 1st band (receptor BlaR-CTD [1]; 2 ppb cloxacillin in fresh milk): 6; Intensity 1st band (receptor BlaR-CTD [1]; 4 ppb cloxacillin in fresh milk): 5; Intensity 1st band (receptor BlaR-CTD [1]; 6 ppb cloxacillin in fresh milk): 3; Intensity 1st band (receptor BlaR-CTD [1]; 8 ppb cloxacillin in fresh milk): 3; Intensity 1st band (receptor BlaR-CTD [1]; 10 ppb cloxacillin in fresh milk): 3 |
| CC1(C)S[C@@H]2[C@H](NC(=O)[C@H](N)c3ccc(O)cc3)C(=O)N2[C@H]1C(=O)O [amoxicillin] | 4 ppb | 4 ppb | 5 ppb |  |
| CC1(C)S[C@@H]2[C@H](NC(=O)[C@H](N)c3ccccc3)C(=O)N2[C@H]1C(=O)O [ampicillin] | 4 ppb | 4 ppb | 5 ppb |  |
| Cc1nnc(SCC2=C(C(=O)O)N3C(=O)[C@@H](NC(=O)Cn4cnnn4)[C@H]3SC2)s1 [cefazolin] | 60 ppb | 45 ppb |  |  |
| CO/N=C(\C(=O)N[C@@H]1C(=O)N2C(C(=O)[O-])=C(C[n+]3cccc4c3CCCC4)CS[C@H]12)c1csc(N)n1 [cefquinone] | less than 20 ppb | less than 20 ppb |  |  |
| Cc1onc(-c2c(Cl)cccc2Cl)c1C(=O)N[C@@H]1C(=O)N2[C@@H]1SC(C)(C)[C@@H]2C(=O)O [dicloxacillin] | 8 ppb | 8 ppb |  |  |
| CCOc1ccc2ccccc2c1C(=O)N[C@@H]1C(=O)N2[C@@H]1SC(C)(C)[C@@H]2C(=O)O [nafcillin] | 20 ppb | 20 ppb |  |  |
| Cc1onc(-c2ccccc2)c1C(=O)N[C@@H]1C(=O)N2[C@@H]1SC(C)(C)[C@@H]2C(=O)O [oxacillin] | 8 ppb | 8 ppb |  |  |
